Measurements reported in article PMC9532399, “The lysosomal transporter TAPL has a dual role as peptide translocator and phosphatidylserine floppase” (Nature Communications, 2022).
No end group written: not given here.

B2: mouse TAPL truncation mutant devoid of the N-terminal 142 residues (ΔTMD0) (domain or fragment, UniProt Q9JJ59 143-762, looked up)
chain: DAEALEPGNEGFHGEGGAPAEQASGATLQKLLSYTKPDVAFLVAASFFLIVAALGETFLPYYTGRAIDSIVIQKSMDQFTTAVVVVCLLAIGSSLAAGIRGGIFTLVFARLNIRLRNCLFRSLVSQETSFFDENRTGDLISRLTSDTTMVSDLVSQNINIFLRNTVKVTGVVVFMFSLSWQLSLVTFMGFPIIMMVSNIYGKYYKRLSKEVQSALARASTTAEETISAMKTVRSFANEEEEAEVFLRKLQQVYKLNRKEAAAYMSYVWGSGLTLLVVQVSILYYGGHLVISGQMSSGNLIAFIIYEFVLGDCMESVGSVYSGLMQGVGAAEKVFEFIDRQPTMVHDGSLAPDHLEGRVDFENVTFTYRTRPHTQVLQNVSFSLSPGKVTALVGPSGSGKSSCVNILENFYPLQGGRVLLDGKPIGAYDHKYLHRVISLVSQEPVLFARSITDNISYGLPTVPFEMVVEAAQKANAHGFIMELQDGYSTETGEKGAQLSGGQKQRVAMARALVRNPPVLILDEATSALDAESEYLIQQAIHGNLQRHTVLIIAHRLSTVERAHLIVVLDKGRVVQQGTHQQLLAQGGLYAKLVQRQMLGLEHPLDYTASHKEPPSNTEHKA
notes: mouse TAPL (ABCB9), protein of 762 amino acids, lacking the N-terminal 142 residues (TMD0); Homodimer by the cryo-EM structures; A thrombin site stood between TAPL and eGFP-10XHis; residues of the site may be left at the C-terminus after cleavage; also called ABCB9; TAP-like; source: High Five (Hi5) insect cells, baculovirus; purified (anti-GFP DARPin agarose, on-column thrombin cleavage, gel …)

Tests used:
mouse TAPL ΔTMD0 [1] = biological target: T1, mouse TAPL ΔTMD0 (Mus musculus, UniProt Q9JJ59); test: Lipid-stimulated ATPase assay, DM-purified ΔTMD0; type: biochemical
T1 construct: thrombin cleavage site (C); eGFP (C); 10XHis (C); made in house; host or cells: Trichoplusia ni High Five (Hi5) insect cells, baculovirus (pVL1393)
T1 sequence (Q9JJ59 143-762): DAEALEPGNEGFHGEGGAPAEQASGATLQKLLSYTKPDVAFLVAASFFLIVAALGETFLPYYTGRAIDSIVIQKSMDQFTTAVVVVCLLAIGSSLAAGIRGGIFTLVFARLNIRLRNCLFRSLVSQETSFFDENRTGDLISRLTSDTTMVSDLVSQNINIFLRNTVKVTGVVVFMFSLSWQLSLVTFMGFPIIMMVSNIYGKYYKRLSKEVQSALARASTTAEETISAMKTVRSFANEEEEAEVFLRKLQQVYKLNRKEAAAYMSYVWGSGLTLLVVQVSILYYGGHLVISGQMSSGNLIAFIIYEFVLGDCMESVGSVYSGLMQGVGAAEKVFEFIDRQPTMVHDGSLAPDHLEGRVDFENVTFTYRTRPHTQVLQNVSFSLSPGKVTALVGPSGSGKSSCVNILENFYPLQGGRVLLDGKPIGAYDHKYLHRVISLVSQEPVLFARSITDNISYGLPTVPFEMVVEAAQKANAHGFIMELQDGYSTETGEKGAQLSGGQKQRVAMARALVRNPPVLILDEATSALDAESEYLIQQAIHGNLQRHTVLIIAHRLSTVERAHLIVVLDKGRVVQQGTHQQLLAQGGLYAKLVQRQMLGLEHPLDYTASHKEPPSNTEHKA
Description: (§1) The ATPase activities of proteins obtained after various purification procedures were determined by NADH-coupled spectrophotometric assays. 10 μg of DM-purified or nanodisc-reconstituted protein was added to 140 μL of reaction buffer containing 50 mM HEPES–KOH pH 8.0, 60 μg/mL pyruvate kinase (Roche), 16 μg/mL lactate dehydrogenase (Roche), 10 mM phosphoenolpyruvate (Roche), 0.3 mM NADH, 3 mM ATP, 10 mM MgCl2, and 0.17% (w/v) DM in the presence or absence of 250 μM peptide. For proteins reconstituted into nanodiscs, DM was not added to the reaction buffer. For lipid-stimulated ATPase assays, the thin film of lipids was hydrated in 100 μL of buffer containing 50 mM HEPES–KOH pH 8.0 and 10 mM MgCl2 to yield a 10 mM solution. After sonication of the lipid solution for 10 min to decrease its turbidity, the reaction was initiated by adding varying concentrations of lipids to the mixture. ATP hydrolysis activity was monitored at 37 °C for 3 min by measuring the rate of decline of NADH absorbance at 340 nm. To inhibit ATP hydrolysis, the reaction mixture was incubated with 3 mM AMP-PNP or 8 mM NaF/2 mM BeSO4 for 5 min at RT. The kinetic parameters of ATP hydrolysis were calculated by fitting the initial rates of ATP hydrolysis to the Michaelis–Menten equation using PRISM 4.0 (GraphPad software).

TAPL Y405A mutant = biological target: T2, TAPL Y405A mutant (Mus musculus, UniProt Q9JJ59, Y405A); test: Lipid-stimulated ATPase assay, DM-purified Y405A mutant; type: biochemical; details: Y405A vs WT
T2 construct: thrombin cleavage site (C); eGFP (C); 10XHis (C); made in house; host or cells: Trichoplusia ni High Five (Hi5) insect cells, baculovirus (pVL1393)
T2 sequence (Q9JJ59 143-762 Y405A): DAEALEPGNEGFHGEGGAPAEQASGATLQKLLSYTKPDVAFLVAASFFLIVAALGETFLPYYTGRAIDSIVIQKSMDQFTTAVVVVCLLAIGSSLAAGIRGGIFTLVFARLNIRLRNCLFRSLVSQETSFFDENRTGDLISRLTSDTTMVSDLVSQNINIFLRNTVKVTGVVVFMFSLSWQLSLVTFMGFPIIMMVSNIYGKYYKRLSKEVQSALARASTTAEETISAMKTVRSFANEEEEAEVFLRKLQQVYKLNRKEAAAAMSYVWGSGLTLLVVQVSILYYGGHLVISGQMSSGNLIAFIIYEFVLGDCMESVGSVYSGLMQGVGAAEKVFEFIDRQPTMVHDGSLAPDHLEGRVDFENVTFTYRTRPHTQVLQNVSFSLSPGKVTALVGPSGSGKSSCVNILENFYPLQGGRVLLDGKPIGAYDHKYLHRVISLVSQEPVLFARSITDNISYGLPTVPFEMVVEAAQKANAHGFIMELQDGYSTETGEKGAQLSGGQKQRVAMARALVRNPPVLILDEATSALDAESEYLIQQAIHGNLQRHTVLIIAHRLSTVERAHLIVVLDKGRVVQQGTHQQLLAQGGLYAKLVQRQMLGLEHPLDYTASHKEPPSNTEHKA
Description: as §1

mouse TAPL ΔTMD0 [2] = biological target: T1, mouse TAPL ΔTMD0; test: Dithionite-based flip-flop (floppase) assay of NBD*-labeled lipids, ΔTMD0 proteoliposomes; type: biochemical; details: 10% (mol/mol) unlabeled POPS, or presence of the 9-mer peptide
Description: All lipids used in reconstitution were purchased from Avanti Polar Lipids, Inc. (purity > 99%). The in vitro flip–flop assay was performed using NBD* dye-labeled proteoliposomes as described previously. Briefly, E. coli polar lipids and egg PC were mixed in a 1:1 molar ratio, and 0.5% (mol/mol) NBD*-lipid was added. The lipid mixture was then dried under nitrogen gas. The NBD*-lipids used were 18:1-06:0 NBD*-PS (1-oleoyl-2-{6-[(7-nitro-2-1,3-benzoxadiazol-4-yl)amino]hexanoyl}-sn-glycero-3-phosphoserine), 18:1-06:0 NBD*-PC (1-oleoyl-2-{6-[(7-nitro-2-1,3-benzoxadiazol-4-yl)amino]hexanoyl}-sn-glycero-3-phosphocholine), 18:1-06:0 NBD*-PG (1-oleoyl-2-{6-[(7-nitro-2-1,3-benzoxadiazol-4-yl)amino]hexanoyl}-sn-glycero-3-[phospho-rac-(1-glycerol)]), 18:1-06:0 NBD*-PE (1-oleoyl-2-{6-[(7-nitro-2-1,3-benzoxadiazol-4-yl)amino]hexanoyl}-sn-glycero-3-phosphoethanolamine), and 25-NBD*-Cholesterol (25-[N-[(7-nitro-2-1,3-benzoxadiazol-4-yl)methyl]amino]−27-norcholesterol). Thin lipid films were solubilized in 20 mM HEPES–NaOH pH 8.0, 200 mM NaCl and 5% (v/v) glycerol, incubated at RT for 30 min and subjected to 5 freeze–thaw cycles. After extrusion with a Mini-Extruder at 65 °C, final lipid concentrations were determined by phosphorus assays. Briefly, 10 μL of extruded lipid was added to 10 μL of 2% (w/v) ammonium molybdate and 300 μL of concentrated perchloric acid. The mixture was heated at 250 °C for 30 min, then cooled to RT and mixed with 1.5 mL of 0.4% (w/v) ammonium molybdate and 250 μL of 9% (w/v) L-ascorbic acid. It was again heated at 100 °C for 6 min and cooled to RT. Lipid concentrations were calculated from the absorbance at 820 nm using a standard curve prepared with NaH2PO4 solution. After accurately determining the lipid concentration, DM-purified protein and 5 mM lipid suspension (solubilized in 5 mM DM) were mixed 1:25 (w/w). After incubation at 4 °C for 1.5 h, DM detergent was removed with 75 mg Bio-beads SM-2 by periodic gentle shaking for 1 h at 4 °C (Supplementary Fig. 5a). The beads were replaced once, followed by an additional incubation at 4 °C for 2 h to completely remove detergent. The resulting proteoliposomes were collected by ultracentrifugation at 200,000×g for 1.5 h at 4 °C.
To measure the flip–flop activity, 10 μL of 2 mM NBD*-labeled proteoliposomes were added to 100 μL of reaction buffer (20 mM HEPES–NaOH pH 8.0, 200 mM NaCl, 5 mM ATP and 5% (v/v) glycerol) in the presence of 2 mM MgCl2 (or NaCl), and incubated at 37 °C for 1 h. The mixture was transferred to a 96-well plate and time-dependent fluorescence (λex/λem = 460/538 nm) was recorded every 30 s for 26 min using a fluorescence spectrophotometer (Gemini XPS). After the baseline fluorescence had stabilized, 10 mM sodium dithionite was added to quench the fluorescence of NBD*-lipid present in the outer leaflets of the liposomes. The initial rapid drop and subsequent slow decline in fluorescence intensity were monitored. When a new steady state was established, 1% (v/v) Triton X-100 was added to completely disrupt the liposomes. The net percentage of NBD*-lipid translocated across the lipid bilayer was calculated from the following equation[72]: the percentage of protected NBD*-lipid in the inner leaflet = [(FD−F0)/(FT−F0)]×100, and that of accessible NBD*-lipid in the outer leaflet = [(FT−FD)/(FT−F0)]×100, where FT is the total fluorescence of the sample before the addition of dithionite, FD is the fluorescence of the sample after quenching with dithionite, and F0 is any residual fluorescence of the sample after solubilization with Triton X-100. Fluorescence values (FT, FD, F0) were calculated as the averages of 5 points on the respective plateau lines. The ΔTMD0-mediated lipid floppase activity was determined by subtracting the percentage of NBD*-lipid fluorescence measured in the presence of Na^+/ATP from that measured in the presence of Mg^2+/ATP.

[3] = biological target: B2; test: cryo-EM structure; DM/CHS-purified ΔTMD0 with 1 mM 9-mer peptide, on ice for 30 min; inward-facing, 4.0 Å; details: both partners purified
[4] = biological target: the molecule itself; test: cryo-EM structure; ΔTMD0 in nanodiscs of E. coli polar lipids, no peptides or nucleotides; inward-facing, 3.4 Å
[5] = biological target: T3, mouse TAPL ΔTMD0 Y405A mutant (mouse, UniProt Q9JJ59 143-762, Y405A); test: MST; 0.2 μM Cy5-labeled peptide with serial 2-fold dilutions of DM-purified protein, 10 min at RT; Monolith NT.115 pico; details: both partners purified
T3 construct: mouse TAPL (ABCB9) lacking the N-terminal 142 residues (TMD0), with Y405A; source: High Five (Hi5) insect cells, baculovirus; DM-purified; not shown: eGFP, C-terminal, cleaved; His10, C-terminal, cleaved
T3 sequence (looked up): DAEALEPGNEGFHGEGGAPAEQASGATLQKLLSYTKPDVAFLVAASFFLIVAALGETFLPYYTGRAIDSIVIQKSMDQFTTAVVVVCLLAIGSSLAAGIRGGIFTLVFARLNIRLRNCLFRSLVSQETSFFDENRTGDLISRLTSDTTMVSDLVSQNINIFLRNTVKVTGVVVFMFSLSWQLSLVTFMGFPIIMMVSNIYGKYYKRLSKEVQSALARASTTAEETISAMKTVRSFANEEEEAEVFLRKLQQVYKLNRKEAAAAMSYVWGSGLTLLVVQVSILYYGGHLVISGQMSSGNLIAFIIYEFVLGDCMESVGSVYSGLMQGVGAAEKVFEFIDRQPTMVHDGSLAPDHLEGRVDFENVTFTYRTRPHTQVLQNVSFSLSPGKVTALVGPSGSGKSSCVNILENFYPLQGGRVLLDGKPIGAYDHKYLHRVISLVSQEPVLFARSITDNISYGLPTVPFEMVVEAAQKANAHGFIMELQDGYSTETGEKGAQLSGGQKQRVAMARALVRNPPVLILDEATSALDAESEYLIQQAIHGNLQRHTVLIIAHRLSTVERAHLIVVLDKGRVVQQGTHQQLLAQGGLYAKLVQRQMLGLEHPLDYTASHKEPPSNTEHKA

[6] = biological target: B2; test: as above; details: both partners purified
[7] = lipid stimulation, 3 mM ATP, means ± SEM

`CC(C)CCC[C@@H](C)[C@H]1CC[C@H]2[C@@H]3CC=C4C[C@@H](OC(=O)CCC(=O)O)CC[C@]4(C)[C@H]3CC[C@]12C` [CHS, cholesteryl hemisuccinate] was tested, and the “Vmax relative to POPG-stimulated ATPase activity” value (mouse TAPL ΔTMD0 [1]; CHS vs POPG) was ~ 51%, the “maximal ATPase activity (turnover)” value (mouse TAPL ΔTMD0 [1]; lipid stimulation, 3 mM ATP) was 80 min⁻¹ and the Km (mouse TAPL ΔTMD0 [1]; [7]) was 127 ± 28 µM. The “maximal ATPase activity (Vmax)” value (mouse TAPL ΔTMD0 [1]; [7]) was 589 ± 18 nmol/mg/min and the “response of Y405A ATPase to lipid” value (TAPL Y405A mutant) was “significantly reduced basal and lipid-stimulated ATPase activity”.

With `CCCCCCCC/C=C\CCCCCCCC(=O)O[C@H](COC(=O)CCCCCCCCCCCCCCC)COP(=O)(O)OC[C@H](N)C(=O)O` [POPS, 1-palmitoyl-2-oleoyl-sn-glycero-3-phospho-l-serine] the “maximal ATPase activity (turnover)” value (mouse TAPL ΔTMD0 [1]; lipid stimulation, 3 mM ATP) was 109 min⁻¹, the “maximal ATPase activity (Vmax)” value (mouse TAPL ΔTMD0 [1]; [7]) was 808 ± 44 nmol/mg/min and the “response of Y405A ATPase to lipid” value (TAPL Y405A mutant) was “significantly reduced basal and lipid-stimulated ATPase activity”. The “effect on translocation of NBD*-PS” value (mouse TAPL ΔTMD0 [2]) was “significantly inhibited”.

B1: 9-mer peptide RRYQKSTEL (peptide)
peptide: RRYQKSTEL
notes: short synthetic peptide known to be transported by human TAPL; source: synthetic peptide (ANYGEN Co., Ltd.)
B1: binds [3].

B2 was tested, and the “stoichiometry N” value [4] was 2.

B3: Cy5-labeled 9-mer peptide RRYQNSTC(Cy-5)L (peptide)
peptide: RRYQNSTC(Cy5)L
notes: synthetic 9-mer peptide with a single cysteine for labeling; also called Cy5-labeled peptide; source: synthetic peptide (ANYGEN Co., Ltd.), labeled with Cy5, desalted
Work on B3 yielded a Kd [5] of 3800 nM and a Kd [6] of 51.9 nM.
